The numbers were not newly measured in patent US20220018045A1, “ELECTROSPUN COAXIAL POLYMER FIBERS FOR CONTROLLED INSECT REPELLENT RELEASE” (The Government of the United States of America, as …, priority 2020, published 2022), which cites them from elsewhere.

The conditions of this data set: ambient conditions.

Take `CCC(C)OC(=O)N1CCCCC1CCO` (stereo not shown) [picaridin, 1-(1-methylpropoxycarbonyl)-2-(2-hydroxyethyl)piperidine]: the vapor pressure is listed as ~3.3×10^−2 Pa.
